Data published in paper PMC10492809, “A Bischler-Napieralski and homo-Mannich sequence enables diversified syntheses of sarpagine alkaloids and analogues” (Nature Communications, 2023).
Several values for one entry are separate records, joined by “and”; a condition that tells them apart may be missing. Identical values can stand only once. Like-named read-outs stand apart in the source and are kept apart here.

How the values were obtained:
Format in all cases: cell-based
MIA PaCa-2 = assay: MTT cell viability assay, MIA PaCa-2
Experimental: (§1) All cell lines were cultured at 37 °C with 5% CO2 in a humidified incubator. HeLa cells were grown in MEM (Gibco) supplemented with 10% fetal bovine serum (FBS, Hyclone) and 1% penicillin/streptomycin (Gibco). MIA PaCa-2, MDA-MB-231, A549, MCF-7, A375 and BEAS-2B cells were grown in DMEM (Gibco) supplemented with 10% FBS and 1% penicillin/streptomycin. CT26, and HCT116 cells were grown in RPMI-1640 supplemented with 10% FBS and 1% penicillin/streptomycin. All cell lines were purchased from the National Collection of Authenticated Cell Cultures (China).
(§2) The antiproliferative activities of the prepared compounds against tested cell lines were evaluated using a standard (MTT)-based colorimetric assay. Cells were plated at a density of 3000 cells/well in 96-well plates and allowed to adhere overnight. Then cells were treated with varying concentrations of synthesized compounds for 72 h. At the end of treatment, 20 μL of thiazolyl blue tetrazolium bromide (MTT) solution (5 mg/mL) was added to each well. Cells were incubated for an additional 4 h at 37 °C and then the medium was removed and replaced with 200 μL of DMSO. The absorbance (OD490) was read on a microplate reader (SpectraMax i3x, Molecular Devices, US). In all experiments, three replicate wells were used for each drug concentration. Each assay was performed at least three times. The IC50 values were calculated by GraphPad Prism 9, which were the mean values derived from three independent experiments.

MDA-MB-231 = assay: MTT cell viability assay, MDA-MB-231
Experimental: as §1, §2

Hela = assay: MTT cell viability assay, Hela
Experimental: as §1, §2

A549 = assay: MTT cell viability assay, A549
Experimental: as §1, §2

MCF-7 = assay: MTT cell viability assay, MCF-7
Experimental: as §1, §2

CT26 = assay: MTT cell viability assay, CT26
Experimental: as §1, §2

HCT 116 = assay: MTT cell viability assay, HCT 116
Experimental: as §1, §2

A375 = assay: MTT cell viability assay, A375
Experimental: as §1, §2

[1] = tested on: lung epithelial BEAS-2B cells; assay: MTT cytotoxicity towards normal cells, BEAS-2B; details: for CC50: MTT, 72 h, cytotoxicity towards normal cells, mean of at least three independent experiments; for IC50: source data sheet, single values of three experiments
Experimental: as §1, §2

[2] = MTT cytotoxicity towards normal cells, BEAS-2B; details: human; for IC50 at 72 h: BEAS-2B lung epithelial cells (normal cells), source data sheet, single values of three experiments; for CC50 at 72 h: BEAS-2B lung epithelial cells, MTT, cytotoxicity towards normal cells, mean of at least three independent experiments
Experimental: as §1, §2

[3] = MTT, 72 h, mean of at least three independent experiments, read-out: IC50 MIA PaCa-2
[4] = source data sheet, single values of three experiments, read-out: MTT IC50 MIA PaCa-2
[5] = MTT, 72 h, mean of at least three independent experiments, read-out: IC50 MDA-MB-231
[6] = source data sheet, single values of three experiments, read-out: MTT IC50 MDA-MB-231
[7] = MTT, 72 h, mean of at least three independent experiments, read-out: IC50 Hela
[8] = source data sheet, single values of three experiments, read-out: MTT IC50 Hela
[9] = MTT, 72 h, mean of at least three independent experiments, read-out: IC50 A549
[10] = source data sheet, single values of three experiments, read-out: MTT IC50 A549
[11] = MTT, 72 h, mean of at least three independent experiments, read-out: IC50 MCF-7
[12] = source data sheet, single values of three experiments, read-out: MTT IC50 MCF-7
[13] = MTT, 72 h, mean of at least three independent experiments, read-out: IC50 CT26
[14] = source data sheet, single values of three experiments, read-out: MTT IC50 CT-26
[15] = MTT, 72 h, mean of at least three independent experiments, read-out: IC50 HCT 116
[16] = source data sheet, single values of three experiments, read-out: MTT IC50 HCT-116
[17] = MTT, 72 h, mean of at least three independent experiments, read-out: IC50 A375
[18] = source data sheet, single values of three experiments, read-out: MTT IC50 A375
[19] = Homo sapiens, MIA PaCa-2, 72 h, MTT, 72 h, mean of at least three independent experiments, read-out: IC50 MIA PaCa-2
[20] = Homo sapiens, MIA PaCa-2, source data sheet, single values of three experiments, read-out: MTT IC50 MIA PaCa-2
[21] = Homo sapiens, MDA-MB-231, 72 h, MTT, 72 h, mean of at least three independent experiments, read-out: IC50 MDA-MB-231
[22] = Homo sapiens, MDA-MB-231, source data sheet, single values of three experiments, read-out: MTT IC50 MDA-MB-231
[23] = Homo sapiens, HeLa, 72 h, MTT, 72 h, mean of at least three independent experiments, read-out: IC50 Hela
[24] = Homo sapiens, HeLa, source data sheet, single values of three experiments, read-out: MTT IC50 Hela
[25] = Homo sapiens, A549, 72 h, MTT, 72 h, mean of at least three independent experiments, read-out: IC50 A549
[26] = Homo sapiens, A549, source data sheet, single values of three experiments, read-out: MTT IC50 A549
[27] = Homo sapiens, MCF7, 72 h, MTT, 72 h, mean of at least three independent experiments, read-out: IC50 MCF-7
[28] = Homo sapiens, MCF7, source data sheet, single values of three experiments, read-out: MTT IC50 MCF-7
[29] = Mus musculus, CT26, 72 h, MTT, 72 h, mean of at least three independent experiments, read-out: IC50 CT26
[30] = Mus musculus, CT26, source data sheet, single values of three experiments, read-out: MTT IC50 CT-26
[31] = Homo sapiens, HCT-116, 72 h, MTT, 72 h, mean of at least three independent experiments, read-out: IC50 HCT 116
[32] = Homo sapiens, HCT-116, source data sheet, single values of three experiments, read-out: MTT IC50 HCT-116
[33] = Homo sapiens, A-375, 72 h, MTT, 72 h, mean of at least three independent experiments, read-out: IC50 A375
[34] = Homo sapiens, A-375, source data sheet, single values of three experiments, read-out: MTT IC50 A375

SMILES | IC50 (MIA PaCa-2; [3]) [µM] | IC50 (MIA PaCa-2; [4]) | IC50 (MDA-MB-231; [5]) [µM] | IC50 (MDA-MB-231; [6]) | IC50 (Hela; [7]) [µM] | IC50 (Hela; [8]) | IC50 (A549; [9]) [µM] | IC50 (A549; [10]) | IC50 (MCF-7; [11]) [µM] | IC50 (MCF-7; [12]) | IC50 (CT26; [13]) [µM] | IC50 (CT26; [14]) | IC50 (HCT 116; [15]) [µM] | IC50 (HCT 116; [16]) | IC50 (A375; [17]) [µM] | IC50 (A375; [18]) | CC50 [1] [µM] | IC50 [1] [µM] | IC50 (MIA PaCa-2; [19]) [µM] | IC50 (MIA PaCa-2; [20]) [µM] | other results
C=C=C1CN2[C@H]3C[C@H]1[C@H](C=O)[C@@H]2Cc1c3n(S(=O)(=O)c2ccc(C)cc2)c2ccccc12 [Compound 15ad] | 12.1 | 12.3 µM and 14 µM and 10.1 µM | 3.07 | 3.01 µM and 3.83 µM and 2.38 µM | 4.37 | 5.18 µM and 4.35 µM and 3.58 µM | 10.4 | 9.24 µM and 12.1 µM and 10 µM | 11.3 | 10.5 µM and 14 µM and 9.22 µM | 8.14 | 10 µM and 7.29 µM and 7.11 µM | 5.25 | 6.65 µM and 4.08 µM and 5.02 µM | 3.57 | 5.01 µM and 2.69 µM and 3.01 µM | > 100 | > 100 |  |  | 
C=C=C1CN2[C@H]3C[C@H]1[C@H](C=O)[C@@H]2Cc1c3n(S(=O)(=O)c2ccc(C)cc2)c2cccc(Br)c12 [Compound 15ae] | 40.3 | 39.9 µM and 44.1 µM and 36.8 µM | 25.4 | 25.1 µM and 24.3 µM and 26.8 µM | 32.1 | 34.5 µM and 31.3 µM and 30.4 µM | 42.9 | 44.1 µM and 40.9 µM and 43.6 µM | 32.1 | 35.2 µM and 29.7 µM and 31.4 µM | 30.1 | 32.8 µM and 27.5 µM and 30 µM | 28 | 30 µM and 26.1 µM and 27.9 µM | 20.4 | 23.6 µM and 17.1 µM and 20.5 µM | > 100 | > 100 |  |  | 
C=C=C1CN2[C@H]3C[C@H]1[C@H](C=O)[C@@H]2Cc1c3n(S(=O)(=O)c2ccc(C)cc2)c2ccc(Br)cc12 [Compound 15af] |  | 23 µM and 17 µM |  | 7.05 µM and 4.11 µM |  | 7.52 µM and 8.35 µM |  | 12.5 µM and 14.9 µM |  | 20.1 µM and 19.2 µM |  | 18.8 µM and 14.8 µM |  | 8.41 µM and 9.85 µM |  | 9.41 µM and 6.25 µM |  |  | 20.2 | 20.5 | IC50 (MDA-MB-231; [21]): 5.39 µM; IC50 (MDA-MB-231; [22]): 5.02 µM; IC50 (Hela; [23]): 8.56 µM; IC50 (Hela; [24]): 9.81 µM; IC50 (A549; [25]): 14.8 µM; IC50 (A549; [26]): 17 µM; IC50 (MCF-7; [27]): 18.1 µM; IC50 (MCF-7; [28]): 15 µM; IC50 (CT26; [29]): 15.8 µM; IC50 (CT26; [30]): 13.8 µM; IC50 (HCT 116; [31]): 9.98 µM; IC50 (HCT 116; [32]): 11.7 µM; IC50 (A375; [33]): 7.51 µM; IC50 (A375; [34]): 6.87 µM; IC50 at 72 h [2]: > 100 µM; CC50 at 72 h [2]: > 100 µM
C=C=C1CN2[C@H]3C[C@H]1[C@H](C=O)[C@@H]2Cc1c3n(S(=O)(=O)c2ccc(C)cc2)c2cc(Br)ccc12 [Compound 15ag] |  | 21.3 µM and 22 µM |  | 9.71 µM and 8.01 µM |  | 9.92 µM and 7.92 µM |  | 15.3 µM and 19.1 µM |  | 21.6 µM and 18.5 µM |  | 15.8 µM and 16.1 µM |  | 13 µM and 10.3 µM |  | 7.82 µM and 8.4 µM |  |  | 22.8 | 25 | IC50 (MDA-MB-231; [21]): 8.59 µM; IC50 (MDA-MB-231; [22]): 8.05 µM; IC50 (Hela; [23]): 9.89 µM; IC50 (Hela; [24]): 11.8 µM; IC50 (A549; [25]): 18.2 µM; IC50 (A549; [26]): 20.1 µM; IC50 (MCF-7; [27]): 20.9 µM; IC50 (MCF-7; [28]): 22.6 µM; IC50 (CT26; [29]): 17.3 µM; IC50 (CT26; [30]): 20 µM; IC50 (HCT 116; [31]): 12.4 µM; IC50 (HCT 116; [32]): 14 µM; IC50 (A375; [33]): 8.88 µM; IC50 (A375; [34]): 10.4 µM; IC50 at 72 h [2]: > 100 µM; CC50 at 72 h [2]: > 100 µM
C=C=C1CN2[C@H]3C[C@H]1[C@H](C=O)[C@@H]2Cc1c3n(S(=O)(=O)c2ccc(C)cc2)c2cc(F)ccc12 [Compound 15aj] |  | 22.1 µM and 26 µM |  | 11.5 µM and 14.1 µM |  | 16.8 µM and 18.3 µM |  | 27.4 µM and 22.6 µM |  | 28.1 µM and 29.2 µM |  | 23.2 µM and 26 µM |  | 20.3 µM and 16.2 µM |  | 11.2 µM and 13.4 µM |  |  | 24.1 | 24.2 | IC50 (MDA-MB-231; [21]): 14 µM; IC50 (MDA-MB-231; [22]): 16.4 µM; IC50 (Hela; [23]): 18.8 µM; IC50 (Hela; [24]): 21.3 µM; IC50 (A549; [25]): 26.2 µM; IC50 (A549; [26]): 28.5 µM; IC50 (MCF-7; [27]): 30.3 µM; IC50 (MCF-7; [28]): 33.5 µM; IC50 (CT26; [29]): 24.3 µM; IC50 (CT26; [30]): 23.7 µM; IC50 (HCT 116; [31]): 18.9 µM; IC50 (HCT 116; [32]): 20.1 µM; IC50 (A375; [33]): 13.4 µM; IC50 (A375; [34]): 15.7 µM; IC50 at 72 h [2]: > 100 µM; CC50 at 72 h [2]: > 100 µM
C=C=C1CN2[C@H]3C[C@H]1[C@H](C(=O)C=C)[C@@H]2Cc1c3n(S(=O)(=O)c2ccc(C)cc2)c2ccccc12 [Compound 15aq] | 20.2 | 22.2 µM and 19.5 µM and 18.9 µM | 8.12 | 10.1 µM and 8.05 µM and 6.22 µM | 10.9 | 12.4 µM and 9.52 µM and 10.6 µM | 19.2 | 22.2 µM and 18.2 µM and 17.1 µM | 24.8 | 24.3 µM and 27.2 µM and 22.8 µM | 15.7 | 15.9 µM and 17.2 µM and 14.1 µM | 10.3 | 12.2 µM and 8.29 µM and 10.3 µM | 7.48 | 9.41 µM and 6.42 µM and 6.61 µM | > 100 | > 100 |  |  | 
